How the values were obtained:
[1] = tested on: Aspergillus niger (A. niger—ATCC 16404); assay: Synergy test, microtiter plate high resolution MIC assay, mold; type: cell-based; set-up: key to SI (calculated synergy index) / SI (synergy index): SI = Qa/QA + Qb/QB (mixture vs. alone end-point concentrations); conditions: A. niger 16404, PDB; for Qa: BIT concentration giving end point (MIC); for Qa (BIT at end point, MIC): alone where Qb = 0
Procedure, shortened: (§1)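 Values derive from Kull synergy index (Qa/QA + Qb/QB, ppm MIC endpoints, alone vs in mixture). Endpoints from high-resolution microtiter MICs spanning 2–10,000 ppm; bacterium ~5×10^6/mL in TSB or M9GY, yeast and mold 5×10^5/mL in PDB.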

[2] = tested on: Candida albicans (C. albicans—ATCC 10231); assay: Synergy test, microtiter plate high resolution MIC assay, yeast; type: cell-based; conditions: C. albicans 10231, PDB; for Qa: BIT concentration giving end point (MIC); for Qa (BIT at end point, MIC): alone where Qb = 0
Procedure, shortened: as §1

O=c1[nH]sc2ccccc12 [BIT, 1,2-benzisothiazolin-3-one]
Qa ([1]; alone or mixed with 2,2′-dithiobis(N-methylbenzamide), 3 days): 20 ppm
Qa ([1]; alone or mixed with EDTA, 4 days): 20 ppm
Qa ([1]; alone or mixed with Imidalozidinyl urea, 3 days): 20 ppm
Qa ([1]; alone or mixed with benzyl alcohol, 1 week): 50 ppm
Qa ([1]; alone or mixed with caprylyl glycol, 1 week): 50 ppm
Qa ([1]; alone or mixed with chlorphenesin, 1 week): 50 ppm
Qa ([1]; alone or mixed with diazolidinyl urea, 3 days): 20 ppm
Qa ([1]; alone or mixed with ethylparaben, 3 days): 20 ppm
Qa ([1]; alone or mixed with glutaraldehyde, 3 days): 20 ppm
Qa ([1]; alone or mixed with methylparaben, 4 days): 30 ppm
Qa ([1]; alone or mixed with phenoxyethanol, 3 days): 20 ppm
SI (calculated synergy index) ([1]; Table 8, 1 week): 1.00
Qa: end-point activity (MIC) of BIT in the mixture (BIT alone, QA, where Qb = 0) ([1]; Table 8, 1 week, B = Benzalkonium chloride): 30 ppm
SI (calculated synergy index) ([1]; Table 9, 4 days): 1.00
Qa: end-point activity (MIC) of BIT in the mixture (BIT alone, QA, where Qb = 0) ([1]; Table 9, 4 days, B = Benzethonium chloride): 30 ppm
SI (synergy index) ([1]; Table 21, 4 days): 1.00
Qa (BIT at end point, MIC) ([1]; Table 21, BIT with Linoleamidopropyl PG-dimonium chloride phosphate, 4 days): 30 ppm
SI (synergy index) ([1]; Table 22, 1 week): 1.00
Qa (BIT at end point, MIC) ([1]; Table 22, BIT with Cocamidopropyl PG-dimonium chloride phosphate, 1 week): 30 ppm
SI (synergy index) ([1]; Table 23, 3 days): 1.00
Qa (BIT at end point, MIC) ([1]; Table 23, BIT with propylparaben, 3 days): 20 ppm
SI (synergy index) ([1]; Table 24, 3 days): 1.00
Qa (BIT at end point, MIC) ([1]; Table 24, BIT with Cis-1-(3-chloroallyl)-3,5,7-triaza-1-azoniaadamantane chloride, 3 days): 30 ppm
SI (synergy index) ([1]; Table 25, 1 week): 1.00
Qa (BIT at end point, MIC) ([1]; Table 25, BIT with sodium dehydroacetic acid, 1 week): 30 ppm
SI (synergy index) ([1]; Table 26, 1 week): 1.00
Qa (BIT at end point, MIC) ([1]; Table 26, BIT with sodium benzoate, 1 week): 30 ppm
SI (synergy index) ([1]; Table 27, 3 days): 1.00
Qa (BIT at end point, MIC) ([1]; Table 27, BIT with Sodium hydroxymethylglycinate, 3 days): 20 ppm
SI (synergy index) ([1]; Table 28, 1 week): 1.00
Qa (BIT at end point, MIC) ([1]; Table 28, BIT with zinc pyrithione, 1 week): 30 ppm
SI ([1]; synergy index BIT + 2,2′-dithiobis(N-methylbenzamide), 3 days): 1.00
SI ([1]; synergy index BIT + EDTA, 4 days): 1.00
SI ([1]; synergy index BIT + Imidalozidinyl urea, 3 days): 1.00
SI ([1]; synergy index BIT + benzyl alcohol, 1 week): 1.00
SI ([1]; synergy index BIT + caprylyl glycol, 1 week): 1.00
SI ([1]; synergy index BIT + chlorphenesin, 1 week): 1.00
SI ([1]; synergy index BIT + diazolidinyl urea, 3 days): 1.00
SI ([1]; synergy index BIT + ethylparaben, 3 days): 1.00
SI ([1]; synergy index BIT + glutaraldehyde, 3 days): 1.00
SI ([1]; synergy index BIT + methylparaben, 4 days): 1.00
SI ([1]; synergy index BIT + phenoxyethanol, 3 days): 1.00
Qa ([2]; alone or mixed with Imidalozidinyl urea, 24 hours): 30 ppm
Qa ([2]; alone or mixed with benzyl alcohol, 48 hours): 30 ppm
Qa ([2]; alone or mixed with caprylyl glycol, 24 hours): 30 ppm
Qa ([2]; alone or mixed with diazolidinyl urea, 24 hours): 30 ppm
Qa ([2]; alone or mixed with glutaraldehyde, 24 hours): 30 ppm
Qa (BIT at end point, MIC) ([2]; Table 24, BIT with Cis-1-(3-chloroallyl)-3,5,7-triaza-1-azoniaadamantane chloride, 24 hours): 20 ppm
SI (synergy index) ([2]; Table 24, 24 hours): 1.00
Qa (BIT at end point, MIC) ([2]; Table 25, BIT with sodium dehydroacetic acid, 24 hours): 30 ppm
SI (synergy index) ([2]; Table 25, 24 hours): 1.00
Qa (BIT at end point, MIC) ([2]; Table 26, BIT with sodium benzoate, 48 hours): 30 ppm
SI (synergy index) ([2]; Table 26, 48 hours): 1.00
SI ([2]; synergy index BIT + Imidalozidinyl urea, 24 hours): 1.00
SI ([2]; synergy index BIT + benzyl alcohol, 48 hours): 1.00
SI ([2]; synergy index BIT + caprylyl glycol, 24 hours): 1.00
SI ([2]; synergy index BIT + diazolidinyl urea, 24 hours): 1.00

Reference: patent US7468384B2, “Microbicidal composition” (Rohm and Haas Company, priority 2004, dated 2008)
